From the supplement of paper PMC10307832

What was measured:
Test in all cases: relative viability (nuclei count vs DMSO), 5 days (fraction); higher = more cells survive
[1] = compound: CC(C)N(CCCNC(=O)Nc1ccc(C(C)(C)C)cc1)C[C@H]1O[C@@H](n2ccc3c(N)ncnc32)[C@H](O)[C@@H]1O + Cc1nc(NC(=O)N2CCC[C@H]2C(N)=O)sc1-c1ccnc(C(C)(C)C(F)(F)F)c1 [Alpelisib] (partner 2 µM)
Summary of the method: (§1)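 Relative viability was taken as the ratio of nuclei in treated wells to nuclei in vehicle wells. Lung cancer cell lines in 1536-well plates received compounds by pin tool one day after seeding, either one drug alone or a fixed anchor-drug dose plus five library-drug doses (not always all listed) in √10 steps. Nuclei were counted on 4× images after 5 days of treatment, and values are medians of duplicate plates.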

Shikonin + Decitabine = compound: CC(C)=CC[C@@H](O)C1=CC(=O)c2c(O)ccc(O)c2C1=O [Shikonin] + Nc1ncn([C@H]2C[C@H](O)[C@@H](CO)O2)c(=O)n1 [Decitabine] (partner 2 µM)
Summary of the method: as §1

Shikonin + Alpelisib = compound: CC(C)=CC[C@@H](O)C1=CC(=O)c2c(O)ccc(O)c2C1=O [Shikonin] + Cc1nc(NC(=O)N2CCC[C@H]2C(N)=O)sc1-c1ccnc(C(C)(C)C(F)(F)F)c1 [Alpelisib] (partner 2 µM)
Summary of the method: as §1

[2] = compound: CC(C)N(CCCNC(=O)Nc1ccc(C(C)(C)C)cc1)C[C@H]1O[C@@H](n2ccc3c(N)ncnc32)[C@H](O)[C@@H]1O + CS(=O)(=O)CCNCc1ccc(-c2ccc3ncnc(Nc4ccc(OCc5cccc(F)c5)c(Cl)c4)c3c2)o1 [Lapatinib] (partner 2 µM)
Summary of the method: as §1

Cell Line | relative viability ([1]; first compound 0.08 µM) | relative viability ([1]; first compound 0.253 µM) | relative viability ([1]; first compound 0.8 µM) | relative viability ([1]; first compound 2.53 µM) | relative viability ([1]; first compound 8 µM) | relative viability (Shikonin + Decitabine; first compound 0.01 µM) | relative viability (Shikonin + Decitabine; first compound 0.1 µM) | relative viability (Shikonin + Decitabine; first compound 0.3162 µM) | relative viability (Shikonin + Decitabine; first compound 1 µM) | relative viability (Shikonin + Alpelisib; first compound 0.01 µM) | relative viability (Shikonin + Alpelisib; first compound 0.1 µM) | relative viability (Shikonin + Alpelisib; first compound 0.3162 µM) | relative viability (Shikonin + Alpelisib; first compound 1 µM) | relative viability ([2]; first compound 0.08 µM) | relative viability ([2]; first compound 0.253 µM) | relative viability ([2]; first compound 0.8 µM) | relative viability ([2]; first compound 2.53 µM) | relative viability ([2]; first compound 8 µM)
201T | 1 | 1.03 | 1.02 | 0.98 | 0.962 | 0.847 | 0.919 | 0.879 | 0.867 | 0.941 | 1.11 | 0.997 | 1.02 | 0.99 | 1.07 | 0.863 | 1.02 | 1.01
A549 | 0.68 | 0.848 | 0.948 | 0.723 | 0.659 | 0.223 | 0.281 | 0.239 | 0.193 | 0.789 | 0.81 | 0.708 | 0.753 | 0.908 | 1.01 | 1.29 | 0.93 | 1.01
A-427 | 1.08 | 1.03 | 1.11 | 1.1 | 1.18 | 0.575 | 0.578 | 0.579 | 0.61 | 1.12 | 1.2 | 1.07 | 1.13 | 1.01 | 0.99 | 1.05 | 1.04 | 1
ABC-1 | 0.989 | 1.2 | – | 1.12 | 1.07 | 1.33 | 1.28 | 1.21 | 1.02 | 1.17 | 1.3 | 0.901 | 0.514 | 1.31 | 0.936 | 0.847 | 1.13 | 1.12
BEN | 0.909 | 0.93 | 0.953 | 0.913 | 0.989 | 0.658 | 0.787 | 0.707 | 0.767 | 1.09 | 1.1 | 1.12 | 1.24 | 0.71 | 0.67 | 0.71 | 0.628 | 0.625
CAL-12T | 1.02 | 1.32 | 1.26 | 1 | 1 | – | – | – | – | 1.14 | 1.13 | 1.19 | 1.2 | 0.61 | 0.477 | 0.572 | 0.625 | 0.652
COR-L23 | 0.74 | 0.765 | 0.791 | 0.955 | 0.759 | 0.382 | 0.516 | 0.399 | 0.398 | 0.845 | 0.913 | 0.86 | 0.719 | 0.955 | 0.929 | 0.888 | 1.01 | 1.04
COR-L 105 | 0.733 | 1.08 | 1.06 | 1.02 | 0.974 | 0.64 | 0.703 | 0.625 | 0.477 | 1.09 | 1.18 | 1.07 | 0.728 | 0.365 | 0.317 | 0.417 | 0.403 | 0.355
Calu-6 | 0.987 | 1.01 | 1.02 | 1.09 | 0.984 | – | – | – | – | 0.921 | 1.23 | 0.88 | 0.934 | 1.05 | 1.09 | 1.09 | 1.12 | 1.09
ChaGo-K-1 | – | – | – | – | – | 0.521 | 0.529 | 0.513 | 0.567 | – | – | – | – | – | – | – | – | –
EBC-1 | 0.749 | 0.825 | 0.739 | 0.848 | 0.704 | – | – | – | – | 0.829 | 0.809 | 0.85 | 0.843 | 0.206 | 0.196 | 0.212 | 0.183 | 0.206
EKVX | 0.908 | 0.883 | 0.827 | 0.855 | 0.676 | 0.295 | 0.367 | 0.312 | 0.584 | 0.863 | 0.973 | 1.07 | 0.846 | 0.205 | 0.202 | 0.185 | 0.206 | 0.212
EMC-BAC-2 | 0.654 | 0.753 | 0.722 | 0.721 | 0.706 | 0.964 | 1.07 | 1.13 | 0.956 | 0.77 | 0.803 | 0.78 | 0.747 | 0.9 | 0.916 | 0.915 | 0.929 | 0.82
EPLC-272H | 0.95 | 0.912 | 0.856 | 1.03 | 1.03 | 0.344 | 0.387 | 0.371 | 0.358 | 0.964 | 1.06 | 0.946 | 0.962 | 1.05 | 0.81 | 0.823 | 0.981 | 1.11
H3255 | 0.93 | 0.711 | 0.662 | 0.714 | 0.665 | 0.606 | 0.658 | 0.663 | 0.503 | 0.637 | 0.721 | 0.629 | 0.689 | 0.242 | 0.255 | 0.231 | 0.253 | 0.216
HARA | 0.795 | 0.744 | 0.763 | 0.701 | 0.779 | 0.516 | 0.674 | 0.691 | 0.591 | 0.871 | 0.871 | 0.923 | 0.917 | 0.637 | 0.679 | 0.429 | 0.498 | 0.568
HCC-15 | 0.79 | 0.863 | 0.891 | 0.93 | 0.811 | 0.575 | 0.848 | 0.638 | 0.792 | 0.881 | 0.949 | 1.04 | 0.912 | 0.864 | 0.876 | 0.68 | 0.818 | 0.804
HCC-44 | 0.811 | 0.785 | 0.744 | 0.787 | 0.806 | 0.953 | 0.928 | 1.1 | 0.979 | 0.972 | 0.849 | 0.933 | 0.852 | 1.08 | 1.11 | 0.857 | 1.05 | 0.959
HCC-78 | 0.272 | 0.289 | 0.323 | 0.334 | 0.315 | 0.71 | 0.638 | 0.721 | 0.732 | 0.311 | 0.347 | 0.352 | 0.349 | 0.693 | 0.809 | 0.786 | 0.431 | 0.701
